{"source": "patent US20070128217A1", "about": "(priority 2003, published 2007)", "key": {"[1]": {"tested_on": "rabbit serum obtained by immunizing a rabbit with the SARS-CoV strain Frankfurt 1", "assay_type": "binding", "parameters": "Binding of a rabbit serum to linear peptides / Binding of a rabbit serum to looped peptides / Rabbit serum linear peptides / Rabbit serum looped peptides / Binding of a rabbit serum to linear peptides of protein N of SARS-CoV Urbani (Rabbit serum linear peptides) / Binding of a rabbit serum to looped/cyclic peptides of protein N of SARS-CoV Urbani (Rabbit serum looped peptides): unit not given here"}, "[2]": {"tested_on": "control sera (pooled serum of ten healthy LUMC hospital workers; commercial negative donor pooled serum from the Dutch bloodbank)", "assay_type": "binding, human", "parameters": "Binding of Control serum LUMC to linear peptides / Binding of Control serum Blood-bank to linear peptides / Binding of Control serum LUMC to looped peptides / Binding of Control Serum Blood-Bank to Looped peptides / Binding of Control serum LUMC to linear peptides of the protein M of SARS-CoV Urbani / Binding of Control serum Blood-bank to linear peptides of the protein M of SARS-CoV Urbani / Binding of Control serum LUMC to looped peptides of the protein M of SARS-CoV Urbani / Binding of Control Serum Blood-Bank to Looped peptides of the protein M of SARS-CoV Urbani: unit not given here"}, "[3]": {"tested_on": "antibodies in sera from SARS patients (sera 1a, 1b, 2, 6, 37, 62, London, SARS-yellow, SARS-green)", "assay_type": "binding, human", "parameters": "Binding of serum 6 to linear peptides of protein X1 of SARS-CoV Urbani / Binding of serum 37 to linear peptides of protein X1 of SARS-CoV Urbani / Binding of serum 6 to looped/cyclic peptide (PEPSCAN-ELISA) / Binding of serum 37 to looped/cyclic peptide (PEPSCAN-ELISA) / Binding of serum 37 to looped/cyclic peptides of protein X1 of SARS-CoV Urbani / Binding of serum 6 to linear peptides of protein X2 / Binding of serum 37 to linear peptides of protein X2 / Binding of serum 37 to looped/cyclic peptides of protein X2 of SARS-CoV Urbani / Binding of serum 6 to linear peptides of protein M of SARS-CoV Urbani / Binding of serum 37 to linear peptides of protein M of SARS-CoV Urbani / Binding of serum 6 to looped/cyclic peptides of protein M of SARS-CoV Urbani / Binding of serum 37 to looped/cyclic peptides of protein M of SARS-CoV Urbani / Binding of serum 6 to linear peptides of protein X3 of SARS-CoV Urbani / Binding of serum 37 to linear peptides of protein X3 of SARS-CoV Urbani / Binding of serum 37 to looped/cyclic peptides of protein X3 of SARS-CoV Urbani / Binding of serum 6 to linear peptides of protein X4 of SARS-CoV Urbani / Binding of serum 37 to linear peptides of protein X4 of SARS-CoV Urbani / Binding of serum 37 to looped/cyclic peptides of protein X4 of SARS-CoV Urbani / Binding of serum 6 to linear peptides of protein X5 of SARS-CoV Urbani / Binding of serum 37 to linear peptides of protein X5 of SARS-CoV Urbani / Binding of serum 37 to looped/cyclic peptides of protein X5 of SARS-CoV Urbani / Binding of serum 6 to linear peptides of protein N of SARS-CoV Urbani / Binding of serum 37 to linear peptides of protein N of SARS-CoV Urbani / Binding of serum 6 to linear peptide (PEPSCAN-ELISA) / Binding of serum 1a to looped/cyclic peptides of protein N of SARS-CoV Urbani / Binding of serum 1b to looped/cyclic peptides of protein N of SARS-CoV Urbani / Binding of serum 2 to looped/cyclic peptides of protein N of SARS-CoV Urbani / Binding of serum 6 to looped/cyclic peptides of protein N of SARS-CoV Urbani / Binding of serum 37 to looped/cyclic peptides of protein N of SARS-CoV Urbani / Binding of serum 62 to looped/cyclic peptides of protein N of SARS-CoV Urbani / Binding of serum London to looped/cyclic peptides of protein N of SARS-CoV Urbani / Binding of serum SARS-green to looped/cyclic peptides of protein N of SARS-CoV Urbani: unit not given here"}}}
{"sequence": "WLLWPVTLACFVLAA", "values": [{"measurement": "Rabbit serum linear peptides", "setting": "[1]", "result": 0.3}, {"measurement": "Rabbit serum looped peptides", "setting": "[1]", "result": 0.3}, {"measurement": "Binding of Control Serum Blood-Bank to Looped peptides of the protein M of SARS-CoV Urbani", "setting": "[2]", "result": 0.5}, {"measurement": "Binding of Control serum Blood-bank to linear peptides of the protein M of SARS-CoV Urbani", "setting": "[2]", "result": 0.4}, {"measurement": "Binding of Control serum LUMC to linear peptides of the protein M of SARS-CoV Urbani", "setting": "[2]", "result": 0.2}, {"measurement": "Binding of Control serum LUMC to looped peptides of the protein M of SARS-CoV Urbani", "setting": "[2]", "result": 0.6}, {"measurement": "Binding of serum 1a to linear peptides of protein M of SARS-CoV Urbani", "setting": "[3]", "result": 0.6}, {"measurement": "Binding of serum 1a to looped/cyclic peptides of protein M of SARS-CoV Urbani", "setting": "[3]", "result": 0.7}, {"measurement": "Binding of serum 1b to linear peptides of protein M of SARS-CoV Urbani", "setting": "[3]", "result": 0.5}, {"measurement": "Binding of serum 1b to looped/cyclic peptides of protein M of SARS-CoV Urbani", "setting": "[3]", "result": 0.3}, {"measurement": "Binding of serum 2 to linear peptides of protein M of SARS-CoV Urbani", "setting": "[3]", "result": 0.5}, {"measurement": "Binding of serum 2 to looped/cyclic peptides of protein M of SARS-CoV Urbani", "setting": "[3]", "result": 0.7}, {"measurement": "Binding of serum 6 to linear peptides of protein M of SARS-CoV Urbani", "setting": "[3]", "result": 0.4}, {"measurement": "Binding of serum 6 to looped/cyclic peptides of protein M of SARS-CoV Urbani", "setting": "[3]", "result": 0.5}, {"measurement": "Binding of serum 37 to linear peptides of protein M of SARS-CoV Urbani", "setting": "[3]", "result": 0.6}, {"measurement": "Binding of serum 37 to looped/cyclic peptides of protein M of SARS-CoV Urbani", "setting": "[3]", "result": 0.7}, {"measurement": "Binding of serum 62 to linear peptides of protein M of SARS-CoV Urbani", "setting": "[3]", "result": 0.6}, {"measurement": "Binding of serum 62 to looped/cyclic peptides of protein M of SARS-CoV Urbani", "setting": "[3]", "result": 0.7}, {"measurement": "Binding of serum London to linear peptides of protein M of SARS-CoV Urbani", "setting": "[3]", "result": 0.3}, {"measurement": "Binding of serum London to looped/cyclic peptides of protein M of SARS-CoV Urbani", "setting": "[3]", "result": 0.2}, {"measurement": "Binding of serum SARS-green to linear peptides of protein M of SARS-CoV Urbani", "setting": "[3]", "result": 0.3}, {"measurement": "Binding of serum SARS-green to looped/cyclic peptides of protein M of SARS-CoV Urbani", "setting": "[3]", "result": 0.3}, {"measurement": "Binding of serum SARS-yellow to linear peptides of protein M of SARS-CoV Urbani", "setting": "[3]", "result": 0.0}, {"measurement": "Binding of serum SARS-yellow to looped/cyclic peptides of protein M of SARS-CoV Urbani", "setting": "[3]", "result": 0.7}]}
{"sequence": "WLSYFVASFRLFART", "values": [{"measurement": "Rabbit serum linear peptides", "setting": "[1]", "result": 0.2}, {"measurement": "Rabbit serum looped peptides", "setting": "[1]", "result": 0.4}, {"measurement": "Binding of Control Serum Blood-Bank to Looped peptides of the protein M of SARS-CoV Urbani", "setting": "[2]", "result": 0.6}, {"measurement": "Binding of Control serum Blood-bank to linear peptides of the protein M of SARS-CoV Urbani", "setting": "[2]", "result": 0.7}, {"measurement": "Binding of Control serum LUMC to linear peptides of the protein M of SARS-CoV Urbani", "setting": "[2]", "result": 0.6}, {"measurement": "Binding of Control serum LUMC to looped peptides of the protein M of SARS-CoV Urbani", "setting": "[2]", "result": 0.8}, {"measurement": "Binding of serum 1a to linear peptides of protein M of SARS-CoV Urbani", "setting": "[3]", "result": 0.6}, {"measurement": "Binding of serum 1b to linear peptides of protein M of SARS-CoV Urbani", "setting": "[3]", "result": 0.5}, {"measurement": "Binding of serum 2 to linear peptides of protein M of SARS-CoV Urbani", "setting": "[3]", "result": 0.4}, {"measurement": "Binding of serum 6 to linear peptides of protein M of SARS-CoV Urbani", "setting": "[3]", "result": 0.4}, {"measurement": "Binding of serum 37 to linear peptides of protein M of SARS-CoV Urbani", "setting": "[3]", "result": 0.4}, {"measurement": "Binding of serum 62 to linear peptides of protein M of SARS-CoV Urbani", "setting": "[3]", "result": 0.4}, {"measurement": "Binding of serum London to linear peptides of protein M of SARS-CoV Urbani", "setting": "[3]", "result": 0.3}, {"measurement": "Binding of serum SARS-green to linear peptides of protein M of SARS-CoV Urbani", "setting": "[3]", "result": 0.4}, {"measurement": "Binding of serum SARS-yellow to linear peptides of protein M of SARS-CoV Urbani", "setting": "[3]", "result": 0.1}, {"measurement": "Recognition of the peptide by sera of SARS-CoV infected individuals, and form (linear, looped/cyclic) in which it is recognized", "setting": "[3]", "result": "recognized in looped/cyclic form"}]}
{"sequence": "WNLDVIISSIVRQLF", "values": [{"measurement": "Rabbit serum linear peptides", "setting": "[1]", "result": 0.1}, {"measurement": "Rabbit serum looped peptides", "setting": "[1]", "result": 0.2}, {"measurement": "Binding of Control Serum Blood-Bank to Looped peptides of the protein X3 of SARS-CoV Urbani", "setting": "[2]", "result": 0.8}, {"measurement": "Binding of Control serum Blood-bank to linear peptides of the protein X3 of SARS-CoV Urbani", "setting": "[2]", "result": 0.6}, {"measurement": "Binding of Control serum LUMC to linear peptides of the protein X3 of SARS-CoV Urbani", "setting": "[2]", "result": 0.3}, {"measurement": "Binding of Control serum LUMC to looped peptides of the protein X3 of SARS-CoV Urbani", "setting": "[2]", "result": 0.7}, {"measurement": "Binding of serum 1a to linear peptides of protein X3 of SARS-CoV Urbani", "setting": "[3]", "result": 0.7}, {"measurement": "Binding of serum 1a to looped/cyclic peptides of protein X3 of SARS-CoV Urbani", "setting": "[3]", "result": 0.5}, {"measurement": "Binding of serum 1b to linear peptides of protein X3 of SARS-CoV Urbani", "setting": "[3]", "result": 0.2}, {"measurement": "Binding of serum 1b to looped/cyclic peptides of protein X3 of SARS-CoV Urbani", "setting": "[3]", "result": 0.3}, {"measurement": "Binding of serum 2 to linear peptides of protein X3 of SARS-CoV Urbani", "setting": "[3]", "result": 0.4}, {"measurement": "Binding of serum 2 to looped/cyclic peptides of protein X3 of SARS-CoV Urbani", "setting": "[3]", "result": 0.4}, {"measurement": "Binding of serum 6 to linear peptides of protein X3 of SARS-CoV Urbani", "setting": "[3]", "result": 0.4}, {"measurement": "Binding of serum 6 to looped/cyclic peptides of protein X3 of SARS-CoV Urbani", "setting": "[3]", "result": 0.4}, {"measurement": "Binding of serum 37 to linear peptides of protein X3 of SARS-CoV Urbani", "setting": "[3]", "result": 0.6}, {"measurement": "Binding of serum 37 to looped/cyclic peptides of protein X3 of SARS-CoV Urbani", "setting": "[3]", "result": 0.4}, {"measurement": "Binding of serum 62 to linear peptides of protein X3 of SARS-CoV Urbani", "setting": "[3]", "result": 0.6}, {"measurement": "Binding of serum 62 to looped/cyclic peptides of protein X3 of SARS-CoV Urbani", "setting": "[3]", "result": 0.4}, {"measurement": "Binding of serum London to linear peptides of protein X3 of SARS-CoV Urbani", "setting": "[3]", "result": 0.5}, {"measurement": "Binding of serum London to looped/cyclic peptides of protein X3 of SARS-CoV Urbani", "setting": "[3]", "result": 0.2}, {"measurement": "Binding of serum SARS-green to linear peptides of protein X3 of SARS-CoV Urbani", "setting": "[3]", "result": 0.2}, {"measurement": "Binding of serum SARS-green to looped/cyclic peptides of protein X3 of SARS-CoV Urbani", "setting": "[3]", "result": 0.2}, {"measurement": "Binding of serum SARS-yellow to linear peptides of protein X3 of SARS-CoV Urbani", "setting": "[3]", "result": 0.2}, {"measurement": "Binding of serum SARS-yellow to looped/cyclic peptides of protein X3 of SARS-CoV Urbani", "setting": "[3]", "result": 0.5}]}
